Measured values as given in ChEMBL document CHEMBL1201862, “PubChem BioAssay data set” (2004).
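Briefly, cells in 96-well plates were exposed to five compound concentrations for 48 h, and endpoints were estimated by linear interpolation. GI50 marks 50% less growth.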 The source made the active and inactive calls. Cut-off read from the data, not from the text of the source: active = GI50 up to about 1.1 µM and inactive = higher.

How the values were obtained:
Assay in all cases: NCI-60 cell line screen, 48 h
[1] = tested on: A549
[2] = tested on: HCT-116
[3] = tested on: HOP-62
[4] = tested on: HOP-92
[5] = tested on: HT-29
[6] = tested on: Hs-578T
[7] = tested on: LOX IMVI
[8] = tested on: MDA-MB-435
[9] = tested on: NCI-H460
[10] = tested on: NCI/ADR-RES
[11] = tested on: OVCAR-8
[12] = tested on: RPMI-8226
[13] = tested on: SF-268
[14] = tested on: SK-MEL-28
[15] = tested on: SK-OV-3
[16] = tested on: SW-620
[17] = tested on: TK-10
[18] = tested on: U-251
[19] = tested on: UACC-257
[20] = tested on: UO-31

Measured: GI50

Cc1cc(=O)oc2c(CNC(CC(C)C)C(=O)O)c(O)ccc12 (stereo not given)
inactive: [1] > 100 µM | [2] > 100 µM | [3] > 100 µM | [4] > 100 µM | [5] > 100 µM | [6] > 100 µM | [7] > 100 µM | [8] > 100 µM | [9] > 100 µM | [10] > 100 µM | [11] > 100 µM | [12] > 100 µM | [13] > 100 µM | [14] > 100 µM | [15] > 100 µM | [16] > 100 µM | [17] > 100 µM | [18] > 100 µM | [19] > 100 µM | [20] > 100 µM

COc1cccc(C2SCC(=O)N2c2ccc(-n3c(-c4ccccc4)nc4ccccc4c3=O)cc2)c1OC (stereo not given)
inactive: [1] > 100 µM | [2] > 100 µM | [3] > 100 µM | [4] > 100 µM | [5] > 100 µM | [6] > 100 µM | [7] > 100 µM | [8] > 100 µM | [9] > 100 µM | [10] > 100 µM | [11] > 100 µM | [12] > 100 µM | [13] > 100 µM | [14] > 100 µM | [15] > 100 µM | [16] > 100 µM | [17] > 100 µM | [18] > 100 µM | [19] > 100 µM | [20] > 43.7 µM

NC(=O)c1ccc(S(=O)(=NS(=O)(=O)c2ccccc2)c2ccc(C(N)=O)cc2)cc1
inactive: [1] > 100 µM | [2] > 100 µM | [3] > 100 µM | [4] > 100 µM | [5] > 100 µM | [6] > 100 µM | [7] > 100 µM | [8] > 100 µM | [9] > 100 µM | [10] > 100 µM | [11] > 100 µM | [12] > 100 µM | [13] > 100 µM | [14] > 100 µM | [15] > 100 µM | [16] > 100 µM | [17] > 100 µM | [18] > 100 µM | [19] > 100 µM | [20] > 100 µM

O=C(c1ccco1)N(C(=S)OCCOc1ccccc1)c1ccccc1
inactive: [1] 30.8 µM | [2] 17.3 µM | [3] 16.2 µM | [4] 14.8 µM | [5] 19.2 µM | [6] 32.1 µM | [7] 19.3 µM | [8] 16.2 µM | [9] 21.9 µM | [10] 25.7 µM | [11] 19.8 µM | [12] 19.8 µM | [13] 18 µM | [14] 18.2 µM | [15] 21.8 µM | [16] 20.5 µM | [17] 20.9 µM | [18] 16.5 µM | [19] 17.9 µM | [20] 15.7 µM

C[C@]12CC[C@H]3[C@@H](CCC4=CC(=O)C=C[C@@]43OC(=O)C(F)(F)F)[C@@H]1CCC2=O
inactive: [1] > 52.6 µM | [2] > 34.7 µM | [3] > 100 µM | [4] > 100 µM | [5] > 100 µM | [6] > 100 µM | [7] > 100 µM | [8] > 100 µM | [9] > 100 µM | [10] > 65.8 µM | [11] > 100 µM | [12] > 100 µM | [13] > 100 µM | [14] > 100 µM | [15] > 100 µM | [16] > 100 µM | [17] > 100 µM | [18] > 100 µM | [19] > 100 µM | [20] > 100 µM

NCC(=O)NC(CO)C(=O)O (stereo not given)
inactive: [1] > 100 µM | [2] > 100 µM | [3] > 100 µM | [4] > 100 µM | [5] > 100 µM | [6] > 100 µM | [7] > 100 µM | [8] > 100 µM | [9] > 100 µM | [10] > 100 µM | [11] > 100 µM | [12] > 100 µM | [13] > 100 µM | [14] > 100 µM | [15] > 100 µM | [16] > 100 µM | [17] > 100 µM | [18] > 100 µM | [19] > 100 µM | [20] > 100 µM

CN(C)CCCNC(=O)CCNC(=O)c1cc(NC(=O)c2cc(NC(=O)c3cc(NC(=O)c4nc(NC(=O)CCCNC(=O)c5cc(NC(=O)c6cc(NC(=O)c7cc(NC(=O)c8nccn8C)cn7C)cn6C)cn5C)cn4C)cn3C)cn2C)cn1C
inactive: [1] > 100 µM | [2] > 100 µM | [3] > 100 µM | [4] > 100 µM | [5] > 100 µM | [6] > 100 µM | [7] > 100 µM | [8] > 100 µM | [9] > 100 µM | [10] > 100 µM | [11] > 100 µM | [12] > 100 µM | [13] > 100 µM | [14] > 100 µM | [15] > 100 µM | [16] > 100 µM | [17] > 100 µM | [18] > 100 µM | [19] > 100 µM | [20] > 100 µM

CCc1nc2cc(F)ccc2[nH]c1=O
inactive: [1] > 100 µM | [2] > 100 µM | [3] > 100 µM | [4] > 100 µM | [5] > 100 µM | [6] 10.4 µM | [7] > 100 µM | [8] > 100 µM | [9] > 100 µM | [10] > 100 µM | [11] > 100 µM | [12] > 100 µM | [13] > 100 µM | [14] > 100 µM | [15] > 100 µM | [16] > 100 µM | [17] > 100 µM | [18] > 100 µM | [19] > 100 µM | [20] > 100 µM

CN(C)C=C1C(=O)c2c(Br)sc(Br)c2C1=O
inactive: [1] 36.4 µM | [2] 21.8 µM | [3] 27.9 µM | [4] 16.6 µM | [5] 28.8 µM | [6] 15.6 µM | [7] 20 µM | [8] 14.1 µM | [9] 20.6 µM | [10] 26.1 µM | [11] 22.9 µM | [12] 29.8 µM | [13] 15.7 µM | [14] 15.3 µM | [15] 22 µM | [16] 28.3 µM | [17] 28.4 µM | [18] 19.1 µM | [19] 16.3 µM | [20] 29.6 µM
